ChEMBL document CHEMBL1137864, “End-capping of the modified melanocortin tetrapeptide (p-Cl)Phe-D-Phe-Arg-Trp-NH2 as a route to hMC4R agonists” (Bioorg Med Chem Lett, 2004)

Assays:
[1] = target: Melanocyte-stimulating hormone receptor (Homo sapiens, UniProt Q01726); experiment: Agonistic activity against human Melanocortin 1 receptor; assay type: functional
[2] = target: Melanocortin receptor 3 (Homo sapiens, UniProt P41968); experiment: Agonistic activity against human Melanocortin 3 receptor; assay type: functional
[3] = target: Melanocortin receptor 4 (Homo sapiens, UniProt P32245); experiment: Agonistic activity against human Melanocortin 4 receptor; assay type: functional
[4] = target: Melanocortin receptor (M1 and M4) (Homo sapiens) (UniProt P32245+Q01726); experiment: Ratio of EC50 of Melanocortin 4 receptor to that of Melanocortin 1 receptor; assay type: protein assay
[5] = target: Melanocortin receptor (M3 and M4) (Homo sapiens) (UniProt P32245+P41968); experiment: Ratio of EC50 of Melanocortin 4 receptor to that of Melanocortin 3 receptor; assay type: protein assay

Chain of Melanocortin receptor 4 (P32245 whole entry): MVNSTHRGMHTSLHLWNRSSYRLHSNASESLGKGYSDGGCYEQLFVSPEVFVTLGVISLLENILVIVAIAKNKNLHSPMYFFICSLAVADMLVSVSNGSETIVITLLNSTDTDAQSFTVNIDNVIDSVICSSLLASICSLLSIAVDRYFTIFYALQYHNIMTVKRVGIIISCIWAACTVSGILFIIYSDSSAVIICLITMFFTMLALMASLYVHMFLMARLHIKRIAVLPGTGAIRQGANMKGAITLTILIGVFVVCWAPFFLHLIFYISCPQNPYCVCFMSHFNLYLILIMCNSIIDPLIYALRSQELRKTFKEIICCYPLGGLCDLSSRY
Chain of Melanocortin receptor 3 (P41968 whole entry): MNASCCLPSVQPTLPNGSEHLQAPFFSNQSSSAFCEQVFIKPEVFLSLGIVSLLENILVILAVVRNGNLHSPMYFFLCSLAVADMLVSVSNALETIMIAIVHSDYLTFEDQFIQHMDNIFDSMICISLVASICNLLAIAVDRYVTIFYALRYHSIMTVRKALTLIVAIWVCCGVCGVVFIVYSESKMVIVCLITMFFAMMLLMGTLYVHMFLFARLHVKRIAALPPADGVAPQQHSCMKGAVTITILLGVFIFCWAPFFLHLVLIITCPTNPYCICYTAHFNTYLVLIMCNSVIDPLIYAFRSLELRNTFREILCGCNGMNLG
Chain of Melanocyte-stimulating hormone receptor (Q01726 whole entry): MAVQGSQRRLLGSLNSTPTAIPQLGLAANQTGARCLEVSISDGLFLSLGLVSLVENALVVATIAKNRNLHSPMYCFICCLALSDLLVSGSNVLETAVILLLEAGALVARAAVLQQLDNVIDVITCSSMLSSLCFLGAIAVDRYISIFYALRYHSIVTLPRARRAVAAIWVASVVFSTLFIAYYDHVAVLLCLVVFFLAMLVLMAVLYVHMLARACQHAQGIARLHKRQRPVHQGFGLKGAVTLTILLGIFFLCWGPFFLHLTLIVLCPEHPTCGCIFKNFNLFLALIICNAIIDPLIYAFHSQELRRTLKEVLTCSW

EC50 [1] [µM]	EC50 [2] [µM]	EC50 [3] [µM]	Ratio [4]	Ratio [5]	Structure (SMILES)
0.534	6.7	0.419	1	16	CS(=O)(=O)N[C@@H](Cc1ccc(Cl)cc1)C(=O)NC(Cc1ccccc1)C(=O)N[C@@H](CCCN=C(N)N)C(=O)N[C@@H](Cc1c[nH]c2ccccc12)C(N)=O (stereo in doubt)
0.856	0.863	0.0137	62	63	C=CCC(=O)N[C@@H](Cc1ccc(Cl)cc1)C(=O)NC(Cc1ccccc1)C(=O)N[C@@H](CCCNC(=N)N)C(=O)N[C@@H](Cc1c[nH]c2ccccc12)C(N)=O (stereo in doubt)
0.985	0.0925	0.146	7	0.6	N=C(N)NCCC[C@H](NC(=O)C(Cc1ccccc1)NC(=O)[C@H](Cc1ccc(Cl)cc1)NC(=O)Nc1ccccc1)C(=O)N[C@@H](Cc1c[nH]c2ccccc12)C(N)=O (stereo in doubt)
0.381	0.145	0.0237	16	6	CC(C)(C)C(=O)N[C@@H](Cc1ccc(Cl)cc1)C(=O)NC(Cc1ccccc1)C(=O)N[C@@H](CCCN=C(N)N)C(=O)N[C@@H](Cc1c[nH]c2ccccc12)C(N)=O (stereo in doubt)
0.378	1.02	0.0393	10	26	CSCC(=O)N[C@@H](Cc1ccc(Cl)cc1)C(=O)NC(Cc1ccccc1)C(=O)N[C@@H](CCCN=C(N)N)C(=O)N[C@@H](Cc1c[nH]c2ccccc12)C(N)=O (stereo in doubt)
0.041	0.14	0.096	0.4	1.5	N=C(N)NCCC[C@H](NC(=O)C(Cc1ccccc1)NC(=O)[C@H](Cc1ccc(Cl)cc1)NC(=O)CCC(=O)c1cc(F)cc(F)c1)C(=O)N[C@@H](Cc1c[nH]c2ccccc12)C(N)=O (stereo in doubt)
2.16	1.67	4.53	0.5	0.4	N=C(N)NCCC[C@H](NC(=O)C(Cc1ccccc1)NC(=O)[C@H](Cc1ccc(Cl)cc1)NS(=O)(=O)C(F)(F)F)C(=O)N[C@@H](Cc1c[nH]c2ccccc12)C(N)=O (stereo in doubt)
0.502	0.961	0.0687	7	14	COCC(=O)N[C@@H](Cc1ccc(Cl)cc1)C(=O)NC(Cc1ccccc1)C(=O)N[C@@H](CCCN=C(N)N)C(=O)N[C@@H](Cc1c[nH]c2ccccc12)C(N)=O (stereo in doubt)
0.841	0.859	0.185	4	5	N=C(N)NCCC[C@H](NC(=O)C(Cc1ccccc1)NC(=O)[C@H](Cc1ccc(Cl)cc1)NC(=O)COc1ccccc1)C(=O)N[C@@H](Cc1c[nH]c2ccccc12)C(N)=O (stereo in doubt)
0.785	2.64	0.137	6	19	COP(=O)(N[C@@H](Cc1ccc(Cl)cc1)C(=O)NC(Cc1ccccc1)C(=O)N[C@@H](CCCN=C(N)N)C(=O)N[C@@H](Cc1c[nH]c2ccccc12)C(N)=O)OC (stereo in doubt)

Structure (SMILES)	EC50 [1] [µM]	EC50 [2] [µM]	EC50 [3] [µM]	Ratio [4]	Ratio [5]
COP(=S)(N[C@@H](Cc1ccc(Cl)cc1)C(=O)NC(Cc1ccccc1)C(=O)N[C@@H](CCCN=C(N)N)C(=O)N[C@@H](Cc1c[nH]c2ccccc12)C(N)=O)OC (stereo in doubt)	1.89	1.6	0.446	4	4
